Patent US20190048052A1, “ANTI-MICROBIAL PEPTIDES AND COATINGS” (Board of Regents of the University of Nebraska, priority 2016, published 2019)
Residues, ends and D or L forms follow the SMILES beside them.

Assays:
S. aureus USA300 [1] = assay: FITC entry into live bacteria, confocal microscopy; format: cell-based, Staphylococcus aureus; conditions: peptide and FITC 9 μM
Description: The entrance of a fluorescent dye into live bacterial cells was also followed by confocal microscopy (Mishra et al. (2015) RSC Advances 5:59758-59769). In brief, S. aureus USA300 was grown to the exponential phase from the overnight culture. The cells were then washed twice with fresh 1×PBS (pH 7.2) and the final cell density was adjusted to 1×10^8 CFU/mL. 1500 μL of the culture was added to the chambers of cuvettes (borosilicate cover glass systems; Nunc Cat. No. 155380) with equimolar concentrations of TetraF2W-RK and fluorescein isothiocyanate FITC (9 μM). The samples were examined with a confocal laser scanning microscope (Zeiss 710) with live time series of picture taken every 5 seconds for 5 minutes and the data were processed using Zen 2010 software.

S. aureus V8 protease = target: T1, S. aureus V8 protease (Staphylococcus aureus, UniProt P0C1U8); format: in vitro ADME; conditions: peptide:protease 40:1, 24 hours, 37° C.
T1 construct: purchased Sigma or Fisher
T1 sequence (P0C1U8 69-336): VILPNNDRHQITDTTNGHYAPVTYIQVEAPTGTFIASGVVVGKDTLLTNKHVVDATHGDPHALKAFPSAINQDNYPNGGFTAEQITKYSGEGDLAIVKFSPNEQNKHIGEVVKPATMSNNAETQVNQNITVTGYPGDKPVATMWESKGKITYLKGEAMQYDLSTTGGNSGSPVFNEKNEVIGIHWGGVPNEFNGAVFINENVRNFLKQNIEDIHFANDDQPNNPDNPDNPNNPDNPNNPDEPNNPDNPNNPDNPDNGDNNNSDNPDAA
Description: When degraded, no peptide band could be detected on a 5% stacking/18% resolving tricine gel after 2-4 hours incubation at 37° C. Briefly, a solution (100 μL) containing 250 μM peptide and 6.25 μM protease (Sigma or Fisher) in 10 mM PBS buffer (pH 8) was incubated at 37° C. (peptide/protease molar ratio, 40:1). Aliquots (10 μL) of the reaction solutions were taken at 0, 6, and 24 hours and immediately mixed with 10 μL of 2× SDS loading buffer followed by boiling for 5 minutes to stop the reaction. […] After electrophoresis, the gel was stained by Brilliant Blue R-250 (Fisher) and destained to view the peptide bands.

S. aureus USA300 [2] = assay: Propidium iodide membrane permeation; format: cell-based, Staphylococcus aureus
Description: Fluorescence spectroscopy was also used to follow bacterial killing. In brief, a serially diluted 10× peptide (10 μL) was made in 96-well coming COSTAR microtiter plates. Propidium iodide (2 μL) was added at 50 μM to each well which was finally incubated with S. aureus USA300 bacteria (88 μL at a final OD600 ˜0.1) with continuous shaking at 100 rpm, 37° C. in a FLUOstar® Omega (BMG LABTECH Inc, NC) microplate reader. The plates were read every 5 minutes for a total duration of 2 hours with excitation and emission wavelengths at 584 nm and 620 nm respectively. Plots were made using averaged readings from duplicated experiments after subtraction of the media control.

S. aureus USA300 [3] = assay: Preformed biofilm disruption (XTT); format: cell-based, Staphylococcus aureus; conditions: 25 μM, 24 hour preformed biofilms
Description: Three types of experiments were conducted to evaluate the anti-biofilm activity of these peptides against S. aureus USA300, which was grown in tryptic soy broth (TSB) media in flat bottom, 96-well, polystyrene microtiter plates (Mishra et al. (2015) RSC Advances 5:59758-59769; Dean et al. (2011) BMC Microbiol., 11:114).
The third experiment evaluates the ability of the peptide to disrupt the biofilms of S. aureus USA300 formed in 24 hours. S. aureus USA300 (10^5 CFU/mL) in fresh TSB media was made from an exponentially growing culture. 200 μL of this bacterial culture was added to each well of the microtiter plates. The plates are then incubated at 37° C. for 24 hours to allow biofilm formation. Media was then carefully removed followed by washing with sterile 1×PBS to remove any unattached bacteria. Solution containing 20 μL of 10× peptide solution and 180 μL of fresh TSB were added. The plates were again incubated at 37° C. for another 24 hours. The extent of peptide disruption of biofilms was quantified using the same XTT method described above.

S. aureus USA300 [4] = assay: Propidium iodide membrane permeation (Example 3); format: cell-based, Staphylococcus aureus; conditions: 3.1 μM
Description: FIGS. 15A and 15B show the growth inhibition (FIG. 15A) and propidium iodide-based membrane permeation (FIG. 15B) of S. aureus USA300 in TSB media by 3.1 μM of TetraF2W-RR and its single arginine variants (Table 8) at 37° C. with shaking at 100 rpm.
Fluorescence spectroscopy was also used to follow bacterial killing. In brief, μL of serially diluted 10× peptide concentrations were done in 96-well coming COSTAR microtiter plates. Propidium iodide at a fixed concentration of 20 μM per well was added to each well which was finally incubated with 88 μL of S. aureus USA300 (with a final OD600 0.1) with continuous shaking at 100 rpm with meander corner well shaking, 37° C. in a FLUOstar® Omega (BMG LABTECH Inc., NC) microplate reader. The plates were read every 5 minutes for a total duration of 2 hours with excitation and emission wavelengths at 584 nm and 620 nm, respectively.

S. aureus USA300 [5] = format: cell-based, Staphylococcus aureus
Outline: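 USA300 (10^5 CFU/mL) biofilms grown statically in TSB for 24 h at 37° C, washed, then exposed to peptide in fresh TSB for another 24 h at 37° C. Residual biomass read by crystal violet staining at 600 nm; viable cells by 10% XTT, 2 h at 37° C, absorbance 450 nm. Biofilm reduction expressed as percent of untreated wells.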

SMILES | time for FITC to enter the majority of cells (S. aureus USA300 [1]) [s] | stability to S. aureus V8 protease (S. aureus V8 protease) | propidium iodide fluorescence change after treatment (S. aureus USA300 [2]) | disruption of preformed biofilms (S. aureus USA300 [3]) [%] | membrane permeation by propidium iodide (S. aureus USA300 [4]) | killing in preformed biofilms (XTT) (S. aureus USA300 [5]; 6.2 μM) | killing in preformed biofilms (XTT), words (S. aureus USA300 [5]; 12.5 μM)
CC[C@H](C)[C@H](NC(=O)[C@H](CCCCN)NC(=O)[C@H](CCCNC(=N)N)NC(=O)[C@H](CC(C)C)NC(=O)[C@H](Cc1c[nH]c2ccccc12)NC(=O)[C@H](Cc1c[nH]c2ccccc12)NC(=O)[C@@H](N)Cc1c[nH]c2ccccc12)C(=O)N[C@@H](Cc1c[nH]c2ccccc12)C(N)=O [TetraF2W-RK, WWWLRKIW] (H-WWWLRKIW-NH2; N-terminus assumed) | 30 | not cut |  |  |  |  | 
CC[C@H](C)[C@H](NC(=O)[C@H](CCCNC(=N)N)NC(=O)[C@H](CCCNC(=N)N)NC(=O)[C@H](CC(C)C)NC(=O)[C@H](Cc1c[nH]c2ccccc12)NC(=O)[C@H](Cc1c[nH]c2ccccc12)NC(=O)[C@@H](N)Cc1c[nH]c2ccccc12)C(=O)N[C@@H](Cc1c[nH]c2ccccc12)C(N)=O [TetraF2W-RR, WWWLRRIW] (H-WWWLRRIW-NH2; N-terminus assumed) |  |  | most effective in damaging the membranes | ~77 | most potent | only the WT was active | nearly all S. aureus USA300 was eliminated
